# Test: gradient 5% acetonitrile 3 min, to 50% in 2 min, to 85% in 15 min, held 3 min, 100 µL/min
# Conditions: column: Zorbax Extend-C18 2.1 x 50 mm; eluents: water / acetonitrile, 0.1% formic acid
# Method in brief: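 Retention times come from adduct peaks that were picked computationally and then checked by hand. The standards, pure and pooled in mixtures of ~100 molecules, were run on a Zorbax Extend-C18 column (2.1 × 50 mm, 1.8 μm) at 100 μL/min with water and acetonitrile, each with 0.1% formic acid. Detection was by quadrupole time-of-flight mass spectrometry in positive and negative ionization mode, with a dead volume of 40 μL and a dwell volume of 900 μL.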
row,RP-LC retention time,SMILES
1,804 s,O=C(c1cc(S(=O)(=O)N2CCCC(C(=O)N3CCN(c4ccccc4)CC3)C2)c[nH]1)N1CCCC1 (stereo not drawn)
2,1260 s,Cc1ccc(-c2nc(-c3ccc(S(=O)(=O)N4CCCC4)cc3)no2)cc1F
3,1200 s,CCOC(=O)c1c(C)oc2nc(C)nc(Nc3ccc4c(c3)OCCO4)c12
4,646 s,COc1ccccc1N1CCN(CCCNc2c(C)c(=O)n(C)c(=O)n2C)CC1
5,559 s,COCC1(O)CCOC2(CCN(Cc3cc(C)ccc3C)CC2)C1 (stereo not drawn)
6,639 s,CN(C)S(=O)(=O)c1cc2c(cc1N1CCN(c3ccccn3)CC1)Oc1ccccc1NC2=O
7,1040 s,Cc1ncoc1C(=O)N1CC(Oc2ccc(-c3nc(-c4ccccc4)no3)cc2)C1
8,764 s,CC1SC(C)C(=O)N(CC(=O)NCCc2ccccc2)C1=O (stereo not drawn)
9,1220 s,COc1ccccc1-c1nc(-c2ccc(S(=O)(=O)N3CCCCC3)cc2)no1
10,903 s,Cc1nnc(-c2cn(CC(=O)NC3CCCCCCC3)c3ccccc23)o1
11,679 s,O=C(NCC1CCCO1)c1nnn(-c2ccc(F)cc2)c1-c1ccncc1 (stereo not drawn)
12,1010 s,CCn1c(=O)c(N2CCN(C(=O)Nc3ccccc3Br)CC2)nc2ccccc21
13,804 s,CCOc1ccc(NC(=O)N2CCN(c3ccc(=O)n(-c4ccc(F)cc4)n3)CC2)cc1
14,841 s,CCCN1C(=O)COc2ccc(-c3noc(Cc4ccc(NC(C)=O)cc4)n3)cc21
15,948 s,CS(=O)(=O)Nc1ccc(C2(C(=O)NCc3cccc(Cl)c3)CCCCC2)cc1
16,892 s,CCC(=O)N(C1CCOCC1)C1CCN(S(=O)(=O)c2ccc(C(F)(F)F)cc2)CC1
17,631 s,COCCN1CC2(CCN(S(=O)(=O)c3cccc(Cl)c3)CC2)C1c1ccncc1 (stereo not drawn)
18,865 s,Cc1c(C(=O)NC(C)C)cnn1-c1cc(-c2nc(C3CC3)no2)ccn1
19,802 s,Cc1ccc(C(=O)NC2CCN(c3nnc4ccc(C(F)(F)F)cn34)CC2)cc1
20,662 s,CC(C)C(=O)N1CCC(c2nc(CNC(=O)C3CCC3)cs2)CC1
21,655 s,Cc1cc(N2CCN(C(=O)Nc3ccc(Cl)cc3)CC2)nc(N2CCOCC2)n1
22,769 s,Cc1c(Cc2ccccc2)sc(NC(=O)C2CCCCC2C(=O)O)c1C(N)=O (stereo not drawn)

row,RP-LC retention time,SMILES
1,786 s,COc1ccccc1CCNC(=O)CCc1csc(NC(=O)NC2CCCCC2)n1
2,783 s,COc1cccc(Cn2nc3ccc(S(=O)(=O)N4CCOCC4)cn3c2=O)c1
3,848 s,COc1ccc(-c2ccnc3nc(-c4ccccc4)nn23)cc1OC
4,728 s,CCCCNC(=O)Cn1nc2c(N3CCSCC3)nccn2c1=O
5,784 s,CC1(C(=O)NCc2ccccc2)CN(S(=O)(=O)c2ccccc2)CC(=O)N1C1CC1 (stereo not drawn)
6,617 s,COc1ccc(-n2c(CN3CCN(C(=O)NCc4ccco4)CC3)nc3cccnc32)cc1
7,886 s,CCOc1ccc(C(=O)N2CCCC2c2nc(-c3ccc(OC)cc3)no2)cc1 (stereo not drawn)
8,780 s,CCn1cnc2ccc(-c3noc(-c4ccc(F)cc4)n3)cc21
9,631 s,CC(C)c1ccc(NC(=O)C(=O)NCCCN2CCN(c3ccccc3)CC2)cc1
10,914 s,O=c1c2ccccc2ncn1Cc1noc(-c2cccc(Br)c2)n1
11,696 s,CCc1nc2ccccc2n1CC(O)COc1ccc(C)c(C)c1 (stereo not drawn)
12,813 s,O=C(NCc1ccco1)N1CCc2nc(-c3ccc(F)cc3)ncc2C1
13,906 s,O=C(Cn1nc2c3cc(-c4ccc(Cl)cc4)nn3ccn2c1=O)NC1CCCCC1
14,883 s,CC1(C)C(=O)Nc2ccc(S(=O)(=O)N3CCC(c4noc(-c5ccccc5)n4)C3)cc21 (stereo not drawn)
15,1010 s,Cc1ccc(NC(=O)CSc2nnc3c4cc(-c5ccc(F)cc5)nn4ccn23)cc1Cl
16,597 s,COc1ccc(S(=O)(=O)N2CCCC(C(=O)NCCO)C2)cc1OC (stereo not drawn)
17,955 s,O=C(Nc1cccc(C(=O)N2CCN(c3ccc(Cl)cc3)CC2)c1)C1=CSCCO1
18,676 s,CCOc1ccc(NC(=O)NCCc2cn(C)c3ncccc23)cc1
19,1020 s,COc1ccc(NC(=O)c2cc3c(=O)oc4ccccc4c3n2C)cc1Cl
20,727 s,CCCc1nnc(NC(=O)C2CCN(C(=O)c3cccc(F)c3)CC2)s1
21,1000 s,COc1ccc(CNC(=O)N2c3ccccc3CC2c2nc(C(C)C)no2)cc1 (stereo not drawn)
22,645 s,COc1ccc(-c2nc3cnccn3c2Nc2ccc(C(=O)NCC3CCCO3)cc2)cc1OC (stereo not drawn)

row,RP-LC retention time,SMILES
1,646 s,CN1CCN(C(=O)C2CCN(c3nc4ccc(-c5cccs5)nc4s3)CC2)CC1
2,586 s,CC(C)NC(=O)c1ccc2ncnc(N3CCCCC3)c2c1
3,631 s,O=C(Nc1ccc(-c2nnc3n2CCCC3)cc1)c1ccsc1
4,942 s,CC(=O)N1CCC(C(=O)NCc2ccccc2)(N(C(=O)c2ccc(C)cc2)C2CCCC2)CC1
5,749 s,Cc1cccc(N2CCN(C(=O)C3CCN(c4cnc5nccnc5c4)CC3)CC2)c1
6,1000 s,Cc1cccc(Cn2nc3ccc(S(=O)(=O)N4CCCCCC4)cn3c2=O)c1
7,675 s,O=C(Nc1ccc2cn[nH]c2c1)c1ccc(F)cc1F
8,1110 s,O=C(Nc1nc2c(s1)CCc1ccccc1-2)c1ccc(S(=O)(=O)N2CCCC2)cc1
9,850 s,O=C(Nc1ccccc1C(F)(F)F)NC1CCN(c2ccc(F)cc2)C1=O (stereo not drawn)
10,579 s,CCCN1CCN(C(=O)c2ccc3c(c2)Sc2ncccc2C(=O)N3CC)CC1
11,712 s,Cc1cnn(CCC(=O)N2CC(n3cc(COc4ccc(F)cc4)nn3)C2)c1
12,788 s,CCc1ccc(C2=Nc3ccccc3N(CC(N)=O)C(=O)C2)cc1
13,938 s,CCOC(=O)c1noc2ncnc(NCc3ccc(OC)cc3)c12
14,720 s,COc1ccc(NC(=O)CN2C(=O)NC3(CCC(C)CC3)C2=O)cc1OC (stereo not drawn)
15,857 s,CCOC(=O)Cc1ccc(NC(=O)NC(C)C(=O)N2CCc3ccccc32)cc1 (stereo not drawn)
16,742 s,CCOC(=O)CNC(=O)N(C)CCc1noc(-c2ccc(F)cc2)n1
17,1260 s,Cc1ccc(-c2nnc(-c3nc(N4CCCCC4C)c4ccccc4n3)o2)cc1 (stereo not drawn)
18,768 s,Cc1cccc(NC(=O)CN2C(=O)CC(C)S(=O)(=O)c3ccccc32)c1 (stereo not drawn)
19,568 s,Cc1ccc(Nc2ccc(NC(=O)c3ccccc3F)cc2)nn1
20,921 s,COc1cc(NC(=O)c2cccc([N+](=O)[O-])c2)c(OC)cc1Cl
21,659 s,CC(C)c1nnc(C2CCN(C(=O)c3ccc(S(=O)(=O)N4CCOCC4)cc3)CC2)o1
22,678 s,COc1ccc(-c2cc(=O)n(CCNC(=O)c3c(F)cccc3F)cn2)cc1

row,RP-LC retention time,SMILES
1,721 s,CC(C)n1cnc(S(=O)(=O)N2CCC(C(=O)NCc3ccc(F)cc3)CC2)c1
2,660 s,CS(=O)(=O)N1CC(c2noc(-c3cccnc3)n2)C2(CCOCC2)C1 (stereo not drawn)
3,598 s,O=C(NC1CC1)C1CCN(c2nc3ccc(-c4cccnc4)nc3s2)CC1
4,833 s,O=C(c1cn(-c2cc(-c3nc(C4CC4)no3)ccn2)cn1)N1CCSCC1
5,563 s,CCNc1nccc(N2CCC(CC(=O)NCC(C)C)CC2)n1
6,795 s,Cc1noc(-c2cc(=O)n(CC(=O)NCc3cccs3)c3ccccc23)n1
7,783 s,CC(C)(Oc1ccc(Cl)cc1)C(=O)Nc1c(-c2ccccc2)nc2ccccn12
8,979 s,Cc1ccc(C(=O)Nc2c(C(=O)NCc3ccc4c(c3)OCO4)[nH]c3ccc(C)cc23)cc1
9,736 s,CCc1ccc(-c2nn(C)c(=O)c3c2CCCC3)cc1S(=O)(=O)N1CCC(C(N)=O)CC1
10,689 s,COc1ccc(CCNC(=O)CSc2nc3sc(C)cc3c(=O)n2C)cc1OC
11,897 s,Cc1ccccc1NC(=O)CSc1nnc2c3cc(-c4ccc(F)cc4)nn3ccn12
12,889 s,CSc1ccc(CNC(=O)CN2CCc3ccccc3C2C(=O)N2CCCCC2)cc1 (stereo not drawn)
13,669 s,Cc1ccc(C)c(-c2cc3c4nnc(CCC(=O)N5CCC(C(N)=O)CC5)n4ccn3n2)c1
14,1330 s,COc1ccc(Cl)cc1NC(=O)c1c(O)c2cccc3c2n(c1=O)CC3
15,776 s,O=c1c2cc3c(cc2nc(SCc2nc(-c4ccccc4)no2)n1Cc1ccncc1)OCO3
16,754 s,Cc1sc(NC(=O)c2cccnc2)nc1-c1ccc2c(c1)N(C)C(=O)CO2
17,595 s,CCCNC(=O)C1CCN(c2ccc(SCC(=O)Nc3ccc(OC)c(OC)c3)nn2)CC1
18,853 s,CCCS(=O)(=O)c1nc2ccc(NS(=O)(=O)c3ccc(OC)c(OC)c3)cc2s1
19,843 s,Cc1nn(-c2ccc(Cl)cc2)c(C)c1S(=O)(=O)N1CCC(C(=O)NCC2CCCO2)CC1 (stereo not drawn)
20,1040 s,CC(C)(C)c1cc(N2CCN(c3ccccn3)CC2)n2ncc(-c3ccccc3)c2n1
21,836 s,CC(NC(=O)c1cn2cc(Cl)ccc2n1)c1ccc(F)cc1 (stereo not drawn)

row,SMILES,RP-LC retention time
1,CCC(=O)N1CCC2(C1)C(=O)N(C)c1ccc(OC)cc12 (stereo not drawn),652 s

# Reference: the METLIN SMRT retention time set (Domingo-Almenara et al. 2019)
